As usually defined, the Ki is a measure of affinity in units of concentration, obtained from inhibition or displacement. As usually defined, the melting point is the temperature, or range, at which the solid turns liquid.

Each structure is given as a SMILES string. Counter-ions that a name gives are not always drawn.

The source of these data is patent US7407961B2, “Pyrazine derivatives and pharmaceutical use thereof” (Astellas Pharma Inc., priority 2003, dated 2008).

The target in one series is T1, human A1 receptor (Homo sapiens, UniProt P30542).
T1 sequence (P30542 1-326): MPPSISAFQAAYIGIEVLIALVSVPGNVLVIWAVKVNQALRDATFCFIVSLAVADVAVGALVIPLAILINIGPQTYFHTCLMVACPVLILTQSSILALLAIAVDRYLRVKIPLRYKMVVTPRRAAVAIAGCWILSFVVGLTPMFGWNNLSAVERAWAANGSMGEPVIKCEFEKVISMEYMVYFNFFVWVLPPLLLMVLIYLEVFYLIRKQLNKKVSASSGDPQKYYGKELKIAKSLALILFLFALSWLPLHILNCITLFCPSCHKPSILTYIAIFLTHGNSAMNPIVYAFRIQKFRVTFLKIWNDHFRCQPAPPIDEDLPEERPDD
The series can be described thus: Adenosine antagonistic activity, radioligand binding with [3H]DPCPX. The following applies: [3H]DPCPX 4.5 nM. As for the experimental part:
(§1) Test 1: Adenosine Antagonistic Activity
(§2) The adenosine antagonistic activity [Ki(nM)] of the test compound was examined by radioligand binding techniques using 8-cyclopentyl-1,3-dipropylxanthine, [dipropyl-2,3-^3H(N)] ([^3H]DPCPX, 4.5 nM) for human A1 receptor and [^3H]CGS 21680 (20 nM) for human A2a receptor.

The next series deals with human A2a receptor (Homo sapiens, UniProt P29274). As to the kind of experiment: Adenosine antagonistic activity, radioligand binding with [3H]CGS 21680. The conditions noted are these: [3H]CGS 21680 20 nM. As to the method: as §1, §2
Chain of human A2a receptor (P29274 whole entry): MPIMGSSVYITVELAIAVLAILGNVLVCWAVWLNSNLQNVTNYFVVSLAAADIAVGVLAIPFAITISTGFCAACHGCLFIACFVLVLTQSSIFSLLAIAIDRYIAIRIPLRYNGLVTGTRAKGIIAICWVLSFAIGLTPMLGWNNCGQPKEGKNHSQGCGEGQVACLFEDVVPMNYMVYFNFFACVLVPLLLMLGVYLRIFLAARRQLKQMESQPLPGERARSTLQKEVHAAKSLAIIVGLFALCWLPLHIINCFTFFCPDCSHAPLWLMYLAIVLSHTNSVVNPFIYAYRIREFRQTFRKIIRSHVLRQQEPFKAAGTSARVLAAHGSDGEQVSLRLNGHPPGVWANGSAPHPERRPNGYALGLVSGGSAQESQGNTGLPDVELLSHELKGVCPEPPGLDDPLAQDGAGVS
Another series concerns ddY mice. The series can be described thus: Anticatalepsy activity in mouse (haloperidol-induced catalepsy, bar test). In kind it is in vivo. The following applies: 3.2 mg/kg orally, ddY mice n=7; haloperidol 0.32 mg/kg i.p. 30 min later; measured 30 min after injection. As for the experimental part: Test 2: Anticatalepsy Activity in Mouse [I] Test Method
The test compound (3.2 mg/kg) was administered orally with ddY mice (n=7). Then, haloperidol (0.32 mg/kg) was injected intraperitoneally 30 min. after the administration of the compound. Thirty min after the injection, the cataleptic responses of mice were measured. The forelimbs of each mouse were placed on a 3 cm high, 3 mm wide horizontal bar, and the duration of cataleptic posture was measured for up to 30 sec.

As to `CC(C)n1cc(-c2ncc(N)nc2-c2cccs2)ccc1=O` [Example 115, 5-[5-Amino-3-(2-thienyl)-2-pyrazinyl]-1-isopropyl-2(1H)-pyridone], the Ki on human A1 receptor turned out to be 4.89 nM; at human A2a receptor it was 0.84 nM. Further, the “Manifestation rate of Catalepsy (number of mouse)” value (“Manifestation rate of Catalepsy” below) with ddY mice is reported as 0/7.
For the compound `CC(C)n1cc(-c2nc(CO)c(N)nc2-c2ccccc2)ccc1=O` [Example 47, 5-[5-amino-6-(hydroxymethyl)-3-phenyl-2-pyrazinyl]-1-isopropyl-2(1H)-pyridone], the Ki on human A1 receptor was 22.3 nM; at human A2a receptor, 7.52 nM. In addition, the “Manifestation rate of Catalepsy” value in the series with ddY mice is given as 1/7.
In the case of `CC(C)n1cc(-c2ncc(N)nc2-c2cc(F)cc(F)c2)ccc1=O` [Example 129, 5-[5-Amino-3-(3,5-difluorophenyl)-2-pyrazinyl]-1-isopropyl-2(1H)-pyridone], the inhibition constant (Ki) at human A1 receptor came out at 10.7 nM; on human A2a receptor, 3.9 nM. Also, in the series with ddY mice, the “Manifestation rate of Catalepsy” value is given as 0/7.
Compound `CCn1cc(-c2nc(C(N)=O)c(N)nc2-c2ccccc2)ccc1=O` [Example 4, 3-Amino-6-(1-ethyl-6-oxo-1,6-dihydro-3-pyridyl)-5-phenyl-2-pyrazinecarboxamide] displayed a melting point greater than 250 °C. The inhibition constant Ki at human A1 receptor is 5.09 nM. At human A2a receptor, this compound showed a Ki of 2.34 nM. In the series on ddY mice, the “Manifestation rate of Catalepsy” value is 0/7.
Turning to `CC(C)n1cc(-c2nc(-c3ccco3)c(N)nc2-c2ccccc2)ccc1=O` [Example 144, 5-[5-Amino-6-(2-furyl)-3-phenyl-2-pyrazinyl]-1-isopropyl-2(1H)-pyridone], the inhibition constant Ki turned out to be 1.78 nM at human A1 receptor and 0.54 nM at human A2a receptor. Besides, the “Manifestation rate of Catalepsy” value in the series with ddY mice is on record as 0/7.
For `CC(C)n1cc(-c2nc(C(=O)NCCO)c(N)nc2-c2ccccc2)ccc1=O` [Example 49, 3-Amino-N-(2-hydroxyethyl)-6-(1-isopropyl-6-oxo-1,6-dihydro-3-pyridyl)-5-phenyl-2-pyrazinecarboxamide] the same measures were 6.07 nM, 1.69 nM and 1/7.
As to `Cn1cc(-c2nc(C#N)c(N)nc2-c2ccccc2)ccc1=O` [Example 11, 3-amino-6-(1-methyl-6-oxo-1,6-dihydro-3-pyridyl)-5-phenyl-2-pyrazinecarbonitrile], the Ki on human A1 receptor is 22.5 nM; at human A2a receptor it was 2.35 nM. Further, the “Manifestation rate of Catalepsy” value with ddY mice is on record as 0/7.
In the case of `CC(C)n1cc(-c2nc(Oc3ccccc3)c(N)nc2-c2ccccc2)ccc1=O` [Example 151, 5-(5-amino-6-phenoxy-3-phenyl-2-pyrazinyl)-1-isopropyl-2(1H)-pyridone], the inhibition constant (Ki) on human A1 receptor is 1.57 nM; on human A2a receptor, 0.32 nM. Also, the “Manifestation rate of Catalepsy” value in the series with ddY mice is listed as 0/7.
For `CC(C)n1cc(-c2nc(C#N)c(N)nc2-c2ccc(F)c(F)c2)ccc1=O` [Example 39, 3-Amino-5-(3,4-difluorophenyl)-6-(1-isopropyl-6-oxo-1,6-dihydro-3-pyridyl)-2-pyrazinecarbonitrile] the same measures were 24 nM, 6.52 nM and 0/7.
For `CC(C)n1cc(-c2nc(C(=O)NCC#N)c(N)nc2-c2ccccc2)ccc1=O` [Example 46, 3-Amino-N-(cyanomethyl)-6-(1-isopropyl-6-oxo-1,6-dihydro-3-pyridyl)-5-phenyl-2-pyrazinecarboxamide] the same measures were 5.25 nM, 1.49 nM and 0/7.
`CC(C)n1cc(-c2nc(C(N)=O)c(N)nc2-c2cccc(F)c2)ccc1=O` (hydrate or solvate) [Example 18, 3-Amino-5-(3-fluorophenyl)-6-(1-isopropyl-6-oxo-1,6-dihydro-3-pyridyl)-2-pyrazinecarboxamide] returned a melting point of 258.8 °C.
For the compound `CC(C)n1cc(-c2nc(Br)c(N)nc2-c2ccccc2)ccc1=O` [Example 141, 5-(5-amino-6-bromo-3-phenyl-2-pyrazinyl)-1-isopropyl-2(1H)-pyridone], the Ki on human A1 receptor was 0.61 nM; at human A2a receptor, 0.23 nM. In addition, in the series on ddY mice, the “Manifestation rate of Catalepsy” value is given as 0/7.
In turn, `CC(C)n1cc(-c2nc(C#N)c(N)nc2-c2ccccc2)ccc1=O` (as salt: Na) (hydrate or solvate) [Example 32, 3-Amino-6-(1-isopropyl-6-oxo-1,6-dihydro-3-pyridyl)-5-phenyl-2-pyrazinecarbonitrile] had a melting point of 205.4 °C.
Take `CC(C)n1cc(-c2nc(C#N)c(N)nc2-c2cccc(F)c2)ccc1=O` (hydrate or solvate) [Example 34, 3-Amino-5-(3-fluorophenyl)-6-(1-isopropyl-6-oxo-1,6-dihydro-3-pyridyl)-2-pyrazinecarbonitrile]: the melting point worked out at 210.6 °C.
Take `CC(C)n1cc(-c2nc(Br)c(N)nc2-c2ccccc2)cc(Br)c1=O` [Example 53, 5-(5-amino-6-bromo-3-phenyl-2-pyrazinyl)-3-bromo-1-isopropyl-2(1H)-pyridone]: the figures for the inhibition constant (Ki) on human A1 receptor and at human A2a receptor were 0.93 nM and 0.91 nM, respectively. Moreover, the “Manifestation rate of Catalepsy” value in the series on ddY mice was 0/7.
